SMILES strings stand for the structures.

Among the data in US20240317727A1 (Duke University, priority 2018, published 2024) are ΔTm values, retold here.

In one experiment the target is T1, recombinant HSF1 DNA-binding domain (DBD) (Homo sapiens, UniProt Q00613).
T1 sequence (Q00613 15-120): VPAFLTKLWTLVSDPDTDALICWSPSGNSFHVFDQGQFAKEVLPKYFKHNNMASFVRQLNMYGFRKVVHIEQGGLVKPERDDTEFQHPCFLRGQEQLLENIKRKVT
Nature of the experiment: Differential Scanning Fluorimetry (DSF), HSF1 DBD melting temperature. Particulars: Table 1; 5 μM HSF1 DBD, 25PM Compound; positive = stabilizes, negative = destabilizes HSF1.
As to `Cc1ccc(C(=O)/C=C(\c2ccccc2)N2CCCCC2)cc1` [Compound 0071], the thermal shift (ΔTm) at 25 µM was -6.24 °C.
Still for that read-out and setting: in the case of `CSc1sc(NC(=O)Nc2cccc(C(F)(F)F)c2)cc1C#N` [Compound 0065] it was 4.44 °C.
With `Oc1ccccc1/C=N/NC(=S)Nc1cccc(Cl)c1` [Compound 0015], the shift in melting temperature (ΔTm) at 25 µM was determined as 3.44 °C.
The same measure, in the same setting: the value for `O=C(Nc1cccnc1)c1cc2c(s1)-c1ccccc1CC2` [Compound 0028] was -9.69 °C; that for `O=C(O)C1=CC(=C(c2ccc(O)c(C(=O)O)c2)c2ccc(O)c(C(=O)O)c2)C=CC1=O` [Compound 0086] was -11.5 °C; that for `CCOC(=O)c1cc(C#N)c(Sc2nnc(SC)s2)nc1C(F)(F)F` [Compound 0055] was -9.69 °C.
On the same count and under the same terms, in the case of `O=C(Nc1ccc(F)cc1)Nc1ccc(Cl)nc1` [Compound 0090, 1-(6-chloro-3-pyridyl)-3-(4-fluorophenyl) urea] it was 0.67 °C; in that of `Cc1ccc(NC(=O)Nc2ccc(Cl)cc2)cc1` [Compound 0113, 1-(4-chlorophenyl)-3-(p-tolyl)urea], 2.28 °C.
Still for that read-out and setting: in the case of `O=C(Nc1ccc(Cl)cc1)Nc1ccc(Cl)c(Cl)c1` [Compound 0001] it was 4.78 °C; in that of `Cc1ccc(NC(=O)Nc2cccc([N+](=O)[O-])c2)cc1` [Compound 0110, 1-(3-nitrophenyl)-3-(p-tolyl)urea], 2.94 °C; in that of `O=C(Nc1ccc(Cl)c(Cl)c1)Nc1ccc(Cl)c([N+](=O)[O-])c1` [Compound 0044, 1-(4-chloro-3-nitrophenyl)-3-(3,4-dichlorophenyl)urea], 2.33 °C.
For the molecule `Cc1ccc(NC(=O)Nc2ccc(Br)c(C(F)(F)F)c2)cc1` [Compound 0075, 1-(4-bromo-3-(trifluoromethyl)phenyl)-3-(p-tolyl)urea], the ΔTm at 25 µM turned out to be 2.61 °C.
On the same count and under the same terms, the value for `Cc1cc([N+](=O)[O-])cc([N+](=O)[O-])c1Sc1ncc2ccccn12` [Compound 0093] was -3.44 °C; that for `CN(C(=O)Nc1ccc(Cl)c([N+](=O)[O-])c1)c1ccc(F)cc1` [Compound 0023, 3-(4-chloro-3-nitro-phenyl)-1-(4-fluorophenyl)-1-methyl-urea] was 0.67 °C; that for `Cc1ccc(NC(=O)Nc2cccc(Cl)c2)cc1` [Compound 0068, 1-(3-chlorophenyl)-3-(p-tolyl)urea] was 2.75 °C.
Same read-out and setting: the value for `O=C(Nc1cccc(Cl)c1)Nc1cccc([N+](=O)[O-])c1` [Compound 0078, 1-(3-chlorophenyl)-3-(3-nitrophenyl)urea] was 2.25 °C.
On the same count and under the same terms, in the case of `O=C(CSc1nnc(-c2ccccc2)n1-c1ccc(F)cc1)NCc1ccccc1` [Compound 0057] it was -10.5 °C; in that of `O=C(Nc1ccc(S(=O)(=O)N2CCCCC2)cc1)c1cccc(Cl)c1` [Compound 0097], 3.43 °C; in that of `O=C(Nc1ccc(F)cc1)Nc1cccc(Cl)c1` [Compound 0060, 1-(3-chlorophenyl)-3-(4-fluorophenyl)urea], 2.5 °C.
As to `Oc1ccc(Cl)cc1/C=N/Nc1cccc(C(F)(F)F)c1` [Compound 0024], the thermal shift (ΔTm) at 25 µM came out at 4.44 °C.
Still for that read-out and setting: in the case of `Cc1cccc(NC(=O)Nc2cccc([N+](=O)[O-])c2)c1` [Compound 0067, 1-(3-nitrophenyl)-3-(m-tolyl)urea] it was 4 °C; in that of `O=[N+]([O-])c1cc(C(F)(F)F)cc([N+](=O)[O-])c1Oc1ccc(C2SCCS2)cc1` [Compound 0062], -6.9 °C; in that of `CC1CC(=O)Oc2cc(Oc3c([N+](=O)[O-])cc(C(F)(F)F)cc3[N+](=O)[O-])ccc21` (stereo not shown) [Compound 0042], -6.23 °C.
On the same count and under the same terms, in the case of `O=C(N/N=C/c1ccc(Br)s1)c1[nH]cc2ccccc12` [Compound 0069] it was 8.06 °C; in that of `O=C(Nc1ccc(F)cc1)Nc1cccc(C(F)(F)F)c1` [Compound 0003, 1-(4-fluorophenyl)-3-(3-(trifluoromethyl)phenyl)urea], 1.78 °C; in that of `O=C(Nc1ccc(Cl)c([N+](=O)[O-])c1)Nc1ccc(F)cc1C1(C(F)(F)F)N=N1` [Compound 0079, 1-(4-chloro-3-nitro-phenyl)-3-[4-fluoro-2-[3-(trifluoromethyl)diazirin-3-yl]phenyl]urea], 2.25 °C.
In the case of `O=c1c(Nc2ccc(F)c(F)c2)c(Nc2ccc(Cl)c(C(F)(F)F)c2)c1=O` [Compound 0092, 3-[4-chloro-3-(trifluoromethyl)anilino]-4-(3,4-difluoroanilino)cyclobut-3-ene-1,2-dione], the shift in melting temperature (ΔTm) at 25 µM was determined as 2.33 °C.
For `CC(C)c1ccc2c(c1)c(SC(C)(C)C)c(CC(C)(C)C(=O)O)n2Cc1ccc(Cl)cc1` [Compound 0109], the thermal shift (ΔTm) at 25 µM was -9.02 °C.
Same read-out and setting: in the case of `Cc1cc(C(C#N)c2ccc(Cl)cc2)c(Cl)cc1NC(=O)c1cc(I)cc(I)c1O` (stereo not shown) [Compound 0040] it was -7.95 °C; in that of `N#CN=C(Nc1ccc(F)cc1)Nc1ccc(Cl)c([N+](=O)[O-])c1` [Compound 0047, 1-(4-chloro-3-nitro-phenyl)-2-cyano-3-(4-fluorophenyl)guanidine], 0.75 °C; in that of `CSc1ccc(Oc2c([N+](=O)[O-])cc(C(F)(F)F)cc2[N+](=O)[O-])cc1` [Compound 0116], -5.56 °C.
As to `O=[N+]([O-])c1cc(C(F)(F)F)cc([N+](=O)[O-])c1Oc1ccc(C2CCCCC2)cc1` [Compound 0102], the thermal shift (ΔTm) at 25 µM was -6.23 °C.
On the same count and under the same terms, in the case of `O=C(CSc1nnc(-c2ccncc2)n1-c1ccccc1)N/N=C/c1cccnc1` [Compound 0029] it was -8.96 °C; in that of `O=C(Nc1ccc(Cl)cc1)Nc1cccc(Cl)c1` [Compound 0066, 1-(3-chlorophenyl)-3-(4-chlorophenyl)urea], 3 °C.
The same measure, in the same setting: in the case of `O=C(Nc1ccc(F)c(F)c1)Nc1ccc(Cl)c(C(F)(F)F)c1` [Compound 0101, 1-(4-chloro-3-(trifluoromethyl)phenyl)-3-(3,4-difluorophenyl)urea] it was 3.33 °C.
Same read-out and setting: in the case of `Cc1c2oc3c(C)c(O)c(I)cc3c(-c3c(Cl)c(Cl)c(Cl)c(Cl)c3C(=O)O)c-2cc(I)c1=O` [Compound 0100] it was -7.52 °C.
For `O=C(Nc1cc(Cl)cc(Cl)c1)Nc1cc(-c2cccs2)n[nH]1` [Compound 0074], the ΔTm at 25 µM was 2.61 °C.
With `CC(C)(C)c1ccc(NC(=O)Nc2ccc(Cl)c([N+](=O)[O-])c2)cc1` [Compound 0105, 1-(4-(tert-butyl)phenyl)-3-(4-chloro-3-nitrophenyl)urea], the thermal shift (ΔTm) at 25 µM is 3.2 °C.
Same read-out and setting: in the case of `CCOc1ccc(S(=O)(=O)NCc2ccccn2)c2ccccc12` [Compound 0087] it was -9.24 °C; in that of `O=C(Nc1ccc(Cl)cc1)Nc1ccc(Cl)c([N+](=O)[O-])c1` [Compound 0048, 1-(4-chloro-3-nitrophenyl)-3-(4-chlorophenyl)urea], 2.61 °C.

The experiment is the same for the next values; noted with them: Table 3; 5 μM HSF1 DBD, 25PM Compound; positive = stabilizes, negative = destabilizes HSF1.
For `O=C(Nc1ccccc1)Nc1ccc(Cl)c(Cl)c1` [Compound 022, 1-(3,4-dichlorophenyl)-3-phenylurea], the ΔTm at 25 µM came out at 2.78 °C.
Regarding `O=C(Nc1ccc(Cl)cc1)Nc1ccc(Cl)c([N+](=O)[O-])c1` [Compound 048, 1-(4-chloro-3-nitrophenyl)-3-(4-chlorophenyl)urea], the ΔTm at 25 µM amounted to 2.61 °C.
On the same count and under the same terms, the value for `COc1ccc(NC(=O)Nc2ccc(Cl)cc2)cc1` [Compound 036, 1-(4-chlorophenyl)-3-(4-methoxyphenyl)urea] was 2.61 °C; that for `Cc1cccc(NC(=O)Nc2cccc([N+](=O)[O-])c2)c1` [Compound 067, 1-(3-nitrophenyl)-3-(m-tolyl)urea] was 4 °C.
Same read-out and setting: in the case of `O=c1c(Nc2ccc(F)cc2)c(Nc2ccc(Cl)c(C(F)(F)F)c2)c1=O` [Compound 064, 3-[4-chloro-3-(trifluoromethyl)anilino]-4-(4-fluoroanilino)cyclobut-3-ene-1,2-dione] it was 2.3 °C.
Turning to `CN(C(=O)Nc1ccc(Cl)c([N+](=O)[O-])c1)c1ccc(F)cc1` [Compound 023, 3-(4-chloro-3-nitro-phenyl)-1-(4-fluorophenyl)-1-methyl-urea], the thermal shift (ΔTm) at 25 µM worked out at 0.67 °C.
Same read-out and setting: in the case of `N#Cc1cc(NC(=O)Nc2ccc(F)cc2)ccc1Cl` [Compound 083, 1-(4-chloro-3-cyano-phenyl)-3-(4-fluorophenyl) urea] it was 2 °C; in that of `Cc1cccc(NC(=O)Nc2ccc(Cl)c([N+](=O)[O-])c2)c1` [Compound 026, 1-(4-chloro-3-nitrophenyl)-3-(m-tolyl)urea], 5.75 °C.
Still for that read-out and setting: in the case of `Cc1ccc(NC(=O)Nc2ccc(Br)c(C(F)(F)F)c2)cc1` [Compound 075, 1-(4-bromo-3-(trifluoromethyl)phenyl)-3-(p-tolyl)urea] it was 2.61 °C; in that of `O=[N+]([O-])c1cc(NC2=NS(=O)(=O)N=C2Nc2ccc(F)cc2)ccc1Cl` [Compound 080, N3-(4-chloro-3-nitro-phenyl)-N4-(4-fluorophenyl)-1,1-dioxo-1,2,5-thiadiazole-3,4-diamine], 1.6 °C; in that of `O=C(Nc1ccc(F)cc1)Nc1ccc(Cl)nc1` [Compound 090, 1-(6-chloro-3-pyridyl)-3-(4-fluorophenyl) urea], 0.67 °C.
Still for that read-out and setting: in the case of `CC(=O)Nc1cc(NC(=O)Nc2ccc(F)cc2)ccc1Cl` [Compound 095, N-[2-chloro-5-[(4-fluorophenyl)carbamoylamino]phenyl]acetamide] it was 0.67 °C.
On to `Cc1cccc(NC(=O)Nc2cccc(Cl)c2)c1` [Compound 006, 1-(3-chlorophenyl)-3-(m-tolyl)urea], for which the ΔTm at 25 µM was determined as 2.5 °C.
On the same count and under the same terms, the value for `O=S1(=O)N=C(Nc2ccc(F)cc2)C(Nc2ccc(Cl)c(C(F)(F)F)c2)=N1` [Compound 033, N3-[4-chloro-3-(trifluoromethyl)phenyl]-N4-(4-fluorophenyl)-1,1-dioxo-1,2,5-thiadiazole-3,4-diamine] was 1.9 °C.
On the same count and under the same terms, the value for `O=C(Nc1ccc(F)c(F)c1)Nc1ccc(Cl)c([N+](=O)[O-])c1` [Compound 034, 1-(4-chloro-3-nitrophenyl)-3-(3,4-difluorophenyl)urea] was 5.7 °C.
